Data: article PMC10056348, “Photocaged Histone Deacetylase Inhibitors as Prodrugs in Targeted Cancer Therapy” (Pharmaceuticals, 2023)

Assays:
human recombinant HDAC1 = target: T1, human recombinant HDAC1 (Homo sapiens, UniProt Q13547); assay: Fluorogenic HDAC enzyme inhibition assay (ZMAL substrate), HDAC1; type: biochemical
T1 construct: purchased BPS Bioscience Inc. 50051
Experimental: First, predilutions (100-fold final assay concentration) of test compounds or reference inhibitors were prepared. To this end, 3-fold serial dilutions of the respective DMSO stock solutions were prepared in DMSO using clear V-bottom 96-well microplates (Greiner Bio-One, Greiner AG, Kremsmünster, Austria). Predilutions designated for photolysis were irradiated for 10 min using the UV reactor described above. […] Next, 5.0 µL of these serial dilutions in assay buffer were transferred into 96-well microplates (OptiPlate-96 Black, PerkinElmer, Waltham, MA, USA). […] Fluorescence (excitation: 355 nm, emission: 460 nm) was measured using a FLUOstar OPTIMA microplate reader (BMG LABTECH GmbH, Ortenberg, Germany). IC50 values were determined by generating normalized dose–response curves using the built-in “log(inhibitor) vs. response (three parameters)” equation provided by GraphPad Prism (GraphPad Prism 9.0, San Diego, CA, USA). All compounds were tested in duplicates; reported mean IC50 values, including standard deviation, were calculated from at least two independent experiments.

[1] = test system: acetyl-α-tubulin in MV-3 cells; assay: Immunoblot of acetyl-α-tubulin (marker of HDAC6 inhibition); type: cell-based; conditions: 24 h, 3.1 µM
Experimental: MV-3 cells were seeded to cell culture flasks and cultured for 48 h. Aliquots of the DMSO stock solution (10 mM) designated for photolysis were irradiated for 10 min with the UV reactor (see Section 4.3). The cells were treated with the stock solutions, processed with or without irradiation, of the indicated concentration or vehicle (DMSO) for 24 h. Cell lysis was performed with Cell Extraction Buffer (10 mM Tris, pH 7.4, 100 mM NaCl, 1 mM EDTA, 1 mM EGTA, 1 mM NaF, 20 mM Na4P2O7, 2 mM Na3VO4, 1% Triton™ ×-100, 10% glycerol, 0.1% SDS, 0.5% deoxycholate; Catalog# FNN0011, Thermo Fisher Scientific Inc., Waltham, MA, USA) and addition of Halt Protease Inhibitor Cocktail (100×) (Catalog# 78429, Life Technologies GmbH Carlsbad, CA, USA) and phenylmethanesulfonyl fluoride (Catalog# 10837091001, Sigma-Aldrich, St. Louis, MO, USA) according to manufacturer instructions. Protein content was determined by Pierce™ BCA Protein Assay Kit (Catalog# 23225, Thermo Fisher Scientific Inc., Waltham, MA, USA) according to manufacturer guidelines. Samples were denatured by Laemmli 2× Concentrate (Catalog# S3401-10VL, Sigma-Aldrich, St. Louis, MO, USA), and Precision Plus Protein Unstained Standard was used as molecular weight marker (Catalog# 1610363, Bio-Rad, Hercules, CA, USA). SDS-PAGE was performed with 10% Mini-PROTEAN TGX Stain-Free Gel at 200 V for 50 min (Catalog# 458035, Bio-Rad, Hercules, CA, USA). Afterwards, proteins were transferred with the Trans-Blot Turbo Transfer System (Catalog# 1704150, Bio-Rad, Hercules, CA, USA) to Immobilon-FL PVDF membranes (Catalog# IPFL00005, Millipore Merck, Burlington, MA, USA) at 1.0 A for 30 min and incubated with 5% milk-powder solution for 1 h at room temperature under slight agitation. Subsequently, the membranes were incubated with anti-acetyl-histone H3 (Catalog# 9677S, Cell Signaling Technology, Denver, MA, USA), anti-acetyl-α-tubulin (Catalog#5335, Cell Signaling Technology, Denver, MA, USA), and anti-GAPDH (Catalog# T0004, Affinity Biosciences, Cincinnati, OH, USA) in 1:1000–1:10000 dilutions at 4 °C, overnight. […]

A2780 cells = assay: Annexin V/PI apoptosis assay (flow cytometry); type: cell-based, human; conditions: A2780, 0.5 µM, 48 or 72 h
Experimental: A2780 cells (4 × 10^4 cells/mL) were seeded in 6-well plates (Starlab GmbH, Hamburg, Germany) and allowed to attach. First, dilutions (500 µM) in DMSO were prepared from the respective stock solutions in DMSO (10 mM). Predilutions for photolysis experiments were irradiated in clear U-bottom 96-well microplates (Greiner Bio-One, Greiner AG, Kremsmünster, Austria) for 10 min in the UV reactor described above. Subsequently, vehicle control (DMSO) or compounds, at a concentration of 0.5 µM, were added to the cells and incubated for 48 h and 72 h, respectively. The final volume was 3 mL, and the final DMSO concentration was 0.1%. Staining was performed in triplicate in two separate experiments using annexin V and propidium iodide and analyzed by flow cytometry (Guava® easyCyte^TM, Luminex, Austin, TX, USA), according to the manufacturer’s protocol (BioLegend, San Diego, CA, USA).
Results were expressed as mean with standard deviation (SD). Statistical analysis was performed using GraphPad Prism (GraphPad Software, San Diego, CA, USA). Normality of the data was analyzed using the Shapiro–Wilk’s test. Statistical significance was assessed using one-way analysis of variance (ANOVA) with Tukey’s multiple comparison test. Differences were considered statistically significant at * p < 0.05, ** p < 0.01, *** p < 0.001.

[2] = after UV irradiation (365 nm, 10 min)

T1 sequence (Q13547 whole entry): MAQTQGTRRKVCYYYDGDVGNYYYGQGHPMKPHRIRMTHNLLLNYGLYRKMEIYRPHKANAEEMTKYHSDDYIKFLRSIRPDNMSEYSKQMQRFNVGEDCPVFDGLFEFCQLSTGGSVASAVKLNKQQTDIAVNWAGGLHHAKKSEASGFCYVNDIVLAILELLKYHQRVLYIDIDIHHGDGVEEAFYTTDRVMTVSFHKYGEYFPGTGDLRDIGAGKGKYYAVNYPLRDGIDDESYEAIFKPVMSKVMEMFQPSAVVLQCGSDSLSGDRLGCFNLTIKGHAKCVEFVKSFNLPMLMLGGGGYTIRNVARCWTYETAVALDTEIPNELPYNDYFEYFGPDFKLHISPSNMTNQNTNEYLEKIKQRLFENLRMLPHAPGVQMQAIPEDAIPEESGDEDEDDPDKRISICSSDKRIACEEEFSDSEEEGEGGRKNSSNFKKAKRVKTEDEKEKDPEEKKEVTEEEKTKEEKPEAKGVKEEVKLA

Row | Structure (SMILES) | IC50 (human recombinant HDAC1; without UV irradiation) [µM] | level of acetylated α-tubulin ([1]; without UV irradiation) | early and late apoptosis vs DMSO control (A2780 cells; without UV irradiation) | IC50 (human recombinant HDAC1; [2]) [µM] | increase of HDAC1 inhibition upon irradiation with UV light (human recombinant HDAC1; irradiated vs non-irradiated) [fold] | level of acetylated α-tubulin [1, 2] | early and late apoptosis vs DMSO control (A2780 cells; after light activation)
1 | CN(C)c1ccc(C(=O)N(CC(=O)NCc2ccccc2)Cc2ccc(C(=O)NO)cc2)cc1 [I, N-[2-(benzylamino)-2-oxoethyl]-4-(dimethylamino)-N-[4-(hydroxycarbamoyl)-benzyl]-benzamide] | 0.0127 ± 0.0007 | strong hyperacetylation | significant increase in early and late apoptotic cells |  |  |  | 
2 | COc1cc(CONC(=O)c2ccc(CN(CC(=O)NCc3ccccc3)C(=O)c3ccc(N(C)C)cc3)cc2)c([N+](=O)[O-])cc1OC [pc-I, N-[2-(Benzylamino)-2-oxoethyl]-N-(4-{[(4,5-dimethoxy-2-nitrobenzyl)oxy]carbamoyl}benzyl)-4-(dimethylamino)benzamide] | 0.824 ± 0.0322 | no increased levels of acetylated α-tubulin | no significant increase in early and late apoptosis | 0.0068 ± 0.0012 | 121 | increased level of acetyl-α-tubulin | increased apoptosis levels which were comparable to compound I
